Values belong to the compound of their own block, whether it stands above or below them.
Assays:
[1] = biological target: T1, Testis-specific serine/threonine-protein kinase 1 (Homo sapiens) (UniProt Q9BXA7); settings: at 10 µM
T1 sequence (whole entry): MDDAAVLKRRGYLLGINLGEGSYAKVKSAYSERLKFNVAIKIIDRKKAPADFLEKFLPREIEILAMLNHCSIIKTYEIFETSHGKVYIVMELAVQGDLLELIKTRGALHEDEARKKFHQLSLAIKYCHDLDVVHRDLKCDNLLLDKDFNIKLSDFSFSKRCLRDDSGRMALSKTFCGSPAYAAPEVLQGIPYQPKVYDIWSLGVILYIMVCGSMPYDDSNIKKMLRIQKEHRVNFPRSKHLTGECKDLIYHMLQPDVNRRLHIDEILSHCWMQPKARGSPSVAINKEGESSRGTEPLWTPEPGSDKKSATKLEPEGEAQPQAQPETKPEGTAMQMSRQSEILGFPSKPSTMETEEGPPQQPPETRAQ

[2] = biological target: Mitogen-activated protein kinase 9 (Homo sapiens, UniProt P45984); assay: Selectivity interaction (ActivX KiNativ screen (kinase selectivity in THP-1 cell lysates)) EUB0000639a MAPK9; format: subcellular; settings: lysate
[3] = biological target: Dual specificity mitogen-activated protein kinase kinase 1 (Homo sapiens, UniProt Q02750); assay: Selectivity interaction (ActivX KiNativ screen (kinase selectivity in THP-1 cell lysates)) EUB0000639a MAP2K1; format: subcellular; settings: lysate, at 0.04 µM
[4] = biological target: 5'-AMP-activated protein kinase catalytic subunit alpha-1 (Homo sapiens, UniProt Q13131); assay: Selectivity interaction (ActivX KiNativ screen (kinase selectivity in THP-1 cell lysates)) EUB0000639a PRKAA1; format: subcellular; settings: lysate, at 5 µM
[5] = biological target: Platelet-derived growth factor receptor alpha (Homo sapiens, UniProt P16234); assay: Selectivity interaction (Kinase panel (33PanQinase(R) Activity Assay)) EUB0000877a PDGFRA
[6] = biological target: MAP kinase-interacting serine/threonine-protein kinase 1 (Homo sapiens) (UniProt Q9BUB5); settings: at 10 µM
[7] = biological target: Maternal embryonic leucine zipper kinase (Homo sapiens) (UniProt Q14680); assay: Selectivity interaction (ProQinase) EUB0000171b MELK
[8] = biological target: T2, Testis-specific serine/threonine-protein kinase 2 (Homo sapiens) (UniProt Q96PF2); assay: Selectivity interaction (ProQinase) EUB0000171b TSSK2
T2 sequence (whole entry): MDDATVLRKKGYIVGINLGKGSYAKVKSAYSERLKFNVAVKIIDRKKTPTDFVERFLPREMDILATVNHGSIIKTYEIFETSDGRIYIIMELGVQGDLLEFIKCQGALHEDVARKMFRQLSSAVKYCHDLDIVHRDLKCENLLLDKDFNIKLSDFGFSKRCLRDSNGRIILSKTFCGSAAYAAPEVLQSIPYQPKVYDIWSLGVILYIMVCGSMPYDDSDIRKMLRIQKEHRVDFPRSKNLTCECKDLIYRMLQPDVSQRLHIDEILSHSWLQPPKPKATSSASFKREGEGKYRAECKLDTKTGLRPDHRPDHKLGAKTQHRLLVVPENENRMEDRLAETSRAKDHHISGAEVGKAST

[9] = biological target: T3, Hormonally up-regulated neu tumor-associated kinase (Homo sapiens) (UniProt P57058); assay: Selectivity interaction (KinomeScan (DiscoverX)) EUB0000045b HUNK
T3 sequence (whole entry): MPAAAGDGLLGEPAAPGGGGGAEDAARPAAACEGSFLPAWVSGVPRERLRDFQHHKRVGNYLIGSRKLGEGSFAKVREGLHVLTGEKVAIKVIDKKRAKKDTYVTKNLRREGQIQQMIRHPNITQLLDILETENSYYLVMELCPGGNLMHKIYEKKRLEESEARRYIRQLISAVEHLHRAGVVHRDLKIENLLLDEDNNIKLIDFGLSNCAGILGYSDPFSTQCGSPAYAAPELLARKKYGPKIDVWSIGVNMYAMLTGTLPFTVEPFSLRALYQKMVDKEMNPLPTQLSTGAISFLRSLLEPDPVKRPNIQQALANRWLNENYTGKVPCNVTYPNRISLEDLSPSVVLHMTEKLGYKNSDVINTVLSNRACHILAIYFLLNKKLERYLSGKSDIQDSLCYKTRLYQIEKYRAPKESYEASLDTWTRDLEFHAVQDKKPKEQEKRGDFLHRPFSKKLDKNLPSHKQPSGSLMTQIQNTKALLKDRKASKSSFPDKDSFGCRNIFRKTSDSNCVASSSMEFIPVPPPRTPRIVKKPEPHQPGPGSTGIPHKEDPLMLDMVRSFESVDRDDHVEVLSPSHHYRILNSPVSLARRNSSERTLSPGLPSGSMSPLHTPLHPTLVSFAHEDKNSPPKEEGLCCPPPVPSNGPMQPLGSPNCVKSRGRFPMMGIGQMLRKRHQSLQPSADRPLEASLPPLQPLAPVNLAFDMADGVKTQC

[10] = biological target: T4, Atypical kinase COQ8B, mitochondrial (Homo sapiens) (UniProt Q96D53); assay: Selectivity interaction (KinomeScan (DiscoverX)) EUB0000607a ADCK4; settings: at 10 µM
T4 sequence (whole entry): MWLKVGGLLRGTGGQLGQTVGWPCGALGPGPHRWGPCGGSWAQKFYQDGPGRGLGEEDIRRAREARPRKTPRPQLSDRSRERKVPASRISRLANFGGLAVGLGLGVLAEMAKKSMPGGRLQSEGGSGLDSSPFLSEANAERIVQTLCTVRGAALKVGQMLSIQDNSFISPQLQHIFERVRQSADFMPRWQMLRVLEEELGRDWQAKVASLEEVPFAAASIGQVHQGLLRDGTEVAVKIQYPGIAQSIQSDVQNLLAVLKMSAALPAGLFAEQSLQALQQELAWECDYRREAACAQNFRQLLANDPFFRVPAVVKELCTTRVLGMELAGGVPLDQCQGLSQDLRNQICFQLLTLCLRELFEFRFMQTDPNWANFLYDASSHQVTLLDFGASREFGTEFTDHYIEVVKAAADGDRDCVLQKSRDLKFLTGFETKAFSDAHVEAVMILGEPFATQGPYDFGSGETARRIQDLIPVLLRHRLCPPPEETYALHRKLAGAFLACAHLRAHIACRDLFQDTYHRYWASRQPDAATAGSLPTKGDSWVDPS

[11] = biological target: Tyrosine-protein kinase Srms (Homo sapiens) (UniProt Q9H3Y6); assay: Selectivity interaction (KinomeScan (DiscoverX)) EUB0000607a SRMS; settings: at 10 µM
[12] = biological target: Serine/threonine-protein kinase SIK1 (Homo sapiens) (UniProt P57059); assay: Selectivity interaction (KinomeScan (DiscoverX)) EUB0000666a SIK1; settings: at 10 µM
[13] = biological target: Dual specificity protein kinase CLK3 (Homo sapiens, UniProt P49761); assay: Selectivity interaction (KinomeScan (DiscoverX)) EUB0000666a CLK3; settings: at 10 µM

Chain of Mitogen-activated protein kinase 9 (P45984 whole entry, looked up): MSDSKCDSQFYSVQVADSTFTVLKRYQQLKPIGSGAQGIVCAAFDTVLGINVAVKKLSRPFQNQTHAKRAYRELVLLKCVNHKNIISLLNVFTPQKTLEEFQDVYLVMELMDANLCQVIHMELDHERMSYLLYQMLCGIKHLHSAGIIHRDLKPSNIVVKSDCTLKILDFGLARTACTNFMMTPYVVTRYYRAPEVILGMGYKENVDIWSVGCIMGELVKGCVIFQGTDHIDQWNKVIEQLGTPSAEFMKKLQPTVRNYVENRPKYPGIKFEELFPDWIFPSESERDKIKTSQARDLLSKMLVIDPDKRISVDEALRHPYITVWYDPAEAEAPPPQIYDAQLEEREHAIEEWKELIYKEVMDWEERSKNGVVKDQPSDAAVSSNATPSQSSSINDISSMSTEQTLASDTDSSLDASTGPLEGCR
Chain of Maternal embryonic leucine zipper kinase (Homo sapiens) (Q14680 whole entry, looked up): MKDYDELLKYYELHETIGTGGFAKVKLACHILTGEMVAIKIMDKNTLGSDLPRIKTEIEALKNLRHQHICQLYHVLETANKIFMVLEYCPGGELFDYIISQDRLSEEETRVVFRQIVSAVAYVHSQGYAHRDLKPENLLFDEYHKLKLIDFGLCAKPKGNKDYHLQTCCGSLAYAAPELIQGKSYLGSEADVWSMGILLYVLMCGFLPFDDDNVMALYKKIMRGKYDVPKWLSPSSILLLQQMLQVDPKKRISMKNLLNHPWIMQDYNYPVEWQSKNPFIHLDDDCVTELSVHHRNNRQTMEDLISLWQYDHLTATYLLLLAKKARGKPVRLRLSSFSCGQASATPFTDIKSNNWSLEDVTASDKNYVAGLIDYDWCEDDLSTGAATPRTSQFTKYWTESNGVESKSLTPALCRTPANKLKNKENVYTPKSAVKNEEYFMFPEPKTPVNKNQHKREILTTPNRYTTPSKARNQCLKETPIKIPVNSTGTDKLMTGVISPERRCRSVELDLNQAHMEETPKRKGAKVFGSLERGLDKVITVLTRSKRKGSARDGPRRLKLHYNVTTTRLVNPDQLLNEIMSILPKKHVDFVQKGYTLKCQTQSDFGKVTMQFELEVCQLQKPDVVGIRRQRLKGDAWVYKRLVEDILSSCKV
Chain of Serine/threonine-protein kinase SIK1 (Homo sapiens) (P57059 whole entry): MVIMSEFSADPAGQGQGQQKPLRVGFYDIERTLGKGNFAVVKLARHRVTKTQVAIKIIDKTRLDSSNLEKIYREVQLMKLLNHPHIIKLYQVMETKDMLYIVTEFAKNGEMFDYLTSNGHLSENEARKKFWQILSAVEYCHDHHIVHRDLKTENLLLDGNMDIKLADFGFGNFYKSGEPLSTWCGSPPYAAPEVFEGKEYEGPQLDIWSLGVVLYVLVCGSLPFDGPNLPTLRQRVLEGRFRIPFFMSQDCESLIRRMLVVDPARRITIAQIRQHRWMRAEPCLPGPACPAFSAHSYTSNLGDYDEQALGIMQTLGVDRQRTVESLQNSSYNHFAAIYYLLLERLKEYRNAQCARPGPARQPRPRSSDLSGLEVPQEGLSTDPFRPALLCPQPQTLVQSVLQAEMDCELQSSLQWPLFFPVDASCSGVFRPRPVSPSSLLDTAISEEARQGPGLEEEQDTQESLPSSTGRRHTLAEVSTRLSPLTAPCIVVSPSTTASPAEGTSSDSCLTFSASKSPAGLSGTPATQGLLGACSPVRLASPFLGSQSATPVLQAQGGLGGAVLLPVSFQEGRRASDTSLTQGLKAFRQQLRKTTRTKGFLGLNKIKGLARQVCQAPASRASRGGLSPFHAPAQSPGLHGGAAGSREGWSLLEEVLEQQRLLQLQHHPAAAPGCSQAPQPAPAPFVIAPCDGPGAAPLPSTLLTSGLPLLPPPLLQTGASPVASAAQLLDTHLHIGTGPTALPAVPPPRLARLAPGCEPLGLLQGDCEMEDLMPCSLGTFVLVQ
Chain of Tyrosine-protein kinase Srms (Homo sapiens) (Q9H3Y6 whole entry): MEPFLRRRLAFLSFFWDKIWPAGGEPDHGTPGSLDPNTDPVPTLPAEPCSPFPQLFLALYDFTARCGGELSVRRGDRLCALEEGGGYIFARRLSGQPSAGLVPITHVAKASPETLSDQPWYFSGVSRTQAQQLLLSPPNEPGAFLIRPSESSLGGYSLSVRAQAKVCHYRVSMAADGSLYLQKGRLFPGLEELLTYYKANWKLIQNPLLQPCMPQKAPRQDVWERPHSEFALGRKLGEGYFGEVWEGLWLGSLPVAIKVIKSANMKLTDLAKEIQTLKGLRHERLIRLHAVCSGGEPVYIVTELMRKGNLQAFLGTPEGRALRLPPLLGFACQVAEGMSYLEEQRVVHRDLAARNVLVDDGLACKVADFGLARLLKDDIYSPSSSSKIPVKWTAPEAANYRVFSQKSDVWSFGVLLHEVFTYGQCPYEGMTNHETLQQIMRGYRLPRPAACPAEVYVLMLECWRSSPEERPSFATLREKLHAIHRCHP
Chain of Platelet-derived growth factor receptor alpha (P16234 whole entry): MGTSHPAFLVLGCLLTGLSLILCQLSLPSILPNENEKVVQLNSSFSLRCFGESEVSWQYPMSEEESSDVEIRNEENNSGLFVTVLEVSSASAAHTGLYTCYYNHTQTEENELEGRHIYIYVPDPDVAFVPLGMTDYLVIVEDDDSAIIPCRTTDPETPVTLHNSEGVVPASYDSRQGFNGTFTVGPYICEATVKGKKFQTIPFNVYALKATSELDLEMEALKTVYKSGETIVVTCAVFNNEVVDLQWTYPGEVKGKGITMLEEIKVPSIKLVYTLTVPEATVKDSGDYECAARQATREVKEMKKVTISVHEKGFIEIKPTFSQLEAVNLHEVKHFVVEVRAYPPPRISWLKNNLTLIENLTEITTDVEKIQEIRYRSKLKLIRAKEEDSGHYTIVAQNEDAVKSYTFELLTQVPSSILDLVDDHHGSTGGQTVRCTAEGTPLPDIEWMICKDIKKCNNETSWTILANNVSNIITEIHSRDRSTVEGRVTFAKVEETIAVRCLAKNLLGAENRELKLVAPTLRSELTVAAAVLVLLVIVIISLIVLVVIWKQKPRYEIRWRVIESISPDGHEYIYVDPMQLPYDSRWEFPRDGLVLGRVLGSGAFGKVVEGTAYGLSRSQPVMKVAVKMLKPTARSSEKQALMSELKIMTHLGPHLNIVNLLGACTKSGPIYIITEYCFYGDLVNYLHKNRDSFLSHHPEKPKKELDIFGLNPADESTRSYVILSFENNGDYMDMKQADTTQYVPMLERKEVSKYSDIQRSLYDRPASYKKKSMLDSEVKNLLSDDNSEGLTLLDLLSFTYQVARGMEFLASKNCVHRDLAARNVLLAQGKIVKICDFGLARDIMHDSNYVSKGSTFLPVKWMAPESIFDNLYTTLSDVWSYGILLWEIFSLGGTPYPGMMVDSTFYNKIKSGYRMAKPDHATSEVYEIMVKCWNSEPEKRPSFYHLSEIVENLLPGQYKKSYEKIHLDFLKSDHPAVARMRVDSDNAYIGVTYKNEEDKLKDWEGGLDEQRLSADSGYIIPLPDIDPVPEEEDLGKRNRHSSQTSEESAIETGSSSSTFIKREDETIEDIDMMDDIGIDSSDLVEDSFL
Chain of 5'-AMP-activated protein kinase catalytic subunit alpha-1 (Q13131 whole entry, looked up): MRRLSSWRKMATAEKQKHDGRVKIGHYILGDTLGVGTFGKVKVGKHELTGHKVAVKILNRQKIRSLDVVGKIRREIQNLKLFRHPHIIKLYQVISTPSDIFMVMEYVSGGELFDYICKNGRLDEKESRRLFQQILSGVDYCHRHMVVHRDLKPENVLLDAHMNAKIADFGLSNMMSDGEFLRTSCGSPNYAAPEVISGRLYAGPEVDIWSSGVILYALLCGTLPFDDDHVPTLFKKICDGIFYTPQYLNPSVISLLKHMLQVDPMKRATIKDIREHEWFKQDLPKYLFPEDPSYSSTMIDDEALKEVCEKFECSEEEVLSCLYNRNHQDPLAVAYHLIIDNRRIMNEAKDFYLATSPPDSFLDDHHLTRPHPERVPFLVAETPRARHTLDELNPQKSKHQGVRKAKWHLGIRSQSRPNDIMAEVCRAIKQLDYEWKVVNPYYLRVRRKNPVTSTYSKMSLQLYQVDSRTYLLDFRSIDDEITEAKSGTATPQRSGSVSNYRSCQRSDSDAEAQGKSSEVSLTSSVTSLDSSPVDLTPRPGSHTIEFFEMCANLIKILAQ
Chain of MAP kinase-interacting serine/threonine-protein kinase 1 (Homo sapiens) (Q9BUB5 whole entry, looked up): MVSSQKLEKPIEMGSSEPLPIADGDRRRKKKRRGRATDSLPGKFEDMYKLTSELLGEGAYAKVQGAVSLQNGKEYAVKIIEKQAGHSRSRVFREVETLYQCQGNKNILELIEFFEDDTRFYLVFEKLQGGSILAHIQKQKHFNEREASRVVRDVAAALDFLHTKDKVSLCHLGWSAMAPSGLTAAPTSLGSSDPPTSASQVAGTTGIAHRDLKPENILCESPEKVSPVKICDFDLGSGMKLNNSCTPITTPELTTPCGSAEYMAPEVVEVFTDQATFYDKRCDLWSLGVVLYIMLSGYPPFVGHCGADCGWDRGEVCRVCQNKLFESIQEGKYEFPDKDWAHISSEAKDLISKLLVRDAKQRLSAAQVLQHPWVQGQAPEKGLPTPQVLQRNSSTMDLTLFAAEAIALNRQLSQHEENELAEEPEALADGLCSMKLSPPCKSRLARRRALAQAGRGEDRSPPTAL
Chain of Dual specificity mitogen-activated protein kinase kinase 1 (Q02750 whole entry): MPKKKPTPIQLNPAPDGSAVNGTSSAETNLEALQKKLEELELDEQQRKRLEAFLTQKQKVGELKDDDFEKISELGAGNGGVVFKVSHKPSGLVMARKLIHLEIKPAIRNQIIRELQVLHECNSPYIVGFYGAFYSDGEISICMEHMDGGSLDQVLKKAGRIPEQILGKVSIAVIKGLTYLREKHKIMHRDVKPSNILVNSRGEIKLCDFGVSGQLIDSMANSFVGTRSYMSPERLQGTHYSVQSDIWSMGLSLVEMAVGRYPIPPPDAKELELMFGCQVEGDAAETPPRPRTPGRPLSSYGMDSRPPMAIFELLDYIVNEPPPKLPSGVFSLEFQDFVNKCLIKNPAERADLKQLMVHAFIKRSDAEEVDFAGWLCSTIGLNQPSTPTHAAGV

Structure (SMILES): Cc1cc([C@@H](C)Nc2ccccc2C(=O)O)c2nc(N3CCOCC3)cc(=O)n2c1 [AZD-6482]
- % of control [1]: 100%

- % of inhibition ([2]; at 0.01 µM): 13.3%
- % of inhibition ([2]; at 0.04 µM): -1.4%
- % of inhibition ([2]; at 0.2 µM): 1.6%
- % of inhibition ([2]; at 1 µM): 27.7%
- % of inhibition ([2]; at 5 µM): 57.5%
- % of inhibition [3]: 5.6%
- % of inhibition [4]: 18.6%
Structure (SMILES): CC[C@@H]1[C@H](F)C(=O)N[C@@H]1COc1nccc2cc(C(N)=O)c(OC)cc12 [ZIMLOVISERTIB]

- IC50 [5]: > 10 µM
Structure (SMILES): CCC(=O)N1CC[C@H](Nc2ncnc3c2CN(c2cnc(OC)c(C(F)(F)F)c2)CC3)C1 [LENIOLISIB]

- % of control [6]: 100%
Structure (SMILES): CCN(CC)CCCCNc1ncc2cc(-c3cc(OC)cc(OC)c3)c(NC(=O)NC(C)(C)C)nc2n1

- % of control ([7]; at 1 µM): 95%
- % of control ([7]; at 5 µM): 70%
- % of control ([8]; at 1 µM): 90%
- % of control ([8]; at 5 µM): 97%
Structure (SMILES): C=CC(=O)Nc1cccc(C(=O)Nc2ccc(Nc3cc(-c4[nH]c(SC)nc4C)ccn3)cc2)c1

Structure (SMILES): C=CC(=O)Nc1cc(-n2c(=O)ccc3cnc4ccc(-c5ccc(NS(C)(=O)=O)cc5)cc4c32)ccc1C
- % of control ([9]; at 1 µM): 85%
- % of control ([9]; at 10 µM): 100%

Structure (SMILES): CNC(=O)Nc1ccc(-c2nc(N3CC4CCC(C3)O4)c3cnn(C4CCC5(CC4)OCCO5)c3n2)cc1
- % of control [10]: 100%
- % of control [11]: 97%

Structure (SMILES): O=C(NOC[C@H](O)CO)c1ccc(F)c(F)c1Nc1ccc(I)cc1F
- % of control [12]: 100%
- % of control [13]: 100%

— ChEMBL document CHEMBL5465560, “Selectivity Literature for EUbOPEN Chemogenomic Library” (2024)
